What all share (type): in vivo
In test [1] the test system is APESV (Apera spica-venti). The experiment in a line: greenhouse pre-emergence herbicidal test. The following applies: scale from 0 to 100, read-out: herbicidal activity against APESV; for pest or weed control at 250 g/ha: pre-emergence, 0,250 kg/ha; for pest or weed control at 125 g/ha: pre-emergence, 0.125 kg/ha. The source says: (§1) The seeds of the test plants were sown separately for each species. For the pre-emergence treatment, the active ingredients, which had been suspended or emulsified in water, were applied directly after sowing by means of finely distributing nozzles. The containers were irrigated gently to promote germination and growth and subsequently covered with transparent plastic hoods until the test plants had rooted. This cover caused uniform germination of the test plants, unless this had been impaired by the active ingredients. For the post-emergence treatment, the test plants were first grown to a height of 3 to 15 cm, depending on the plant habit, and only then treated with the active ingredients which had been suspended or emulsified in water. For this purpose, the test plants were either sown directly and grown in the same containers, or they were first grown separately as seedlings and transplanted into the test containers a few days prior to treatment. Depending on the species, the test plants were kept at 10-25° C. or 20-35° C., respectively. The test period extended over 2 to 4 weeks. During this time, the test plants were tended, and their response to the individual treatments was evaluated. Evaluation was carried out using a scale from 0 to 100. 100 means no emergence of the test plants, or complete destruction of at least the aerial moieties, and 0 means no damage, or normal course of growth. A good herbicidal activity is given at values of 70 to 90 and a very good herbicidal activity is given at values of 90 to 100. The test plants used in the greenhouse experiments were of the following species: [table]

The test system of another test is AVEFA (Avena fatua). The experiment in a line: greenhouse post-emergence herbicidal test. The settings on record: scale from 0 to 100, read-out: herbicidal activity against AVEFA; for pest or weed control at 250 g/ha: 0.250 kg/ha; for pest or weed control at 630 g/ha: 0.63 kg/ha; for pest or weed control at 125 g/ha: 0.125 kg/ha.
Source text: as §1

Another test relates to SETVI (Setaria viridis). The experiment in a line: greenhouse post-emergence herbicidal test. The following applies: scale from 0 to 100.
Source text: as §1

The subject of test [2] is ABUTH (Abutilon theophrasti). The experiment in a line: greenhouse post-emergence herbicidal test. The settings on record: 0.500 kg/ha, scale from 0 to 100.
Source text: as §1

A further test concerns SETFA (Setaria faberi). The experiment in a line: greenhouse pre-emergence herbicidal test. The settings on record: scale from 0 to 100.
Source text: as §1

Test [3] deals with ECHCG (Echinocloa crus-galli). The experiment in a line: greenhouse post-emergence herbicidal test. The settings on record: 0.63 kg/ha, scale from 0 to 100.
Source text: as §1

Test [4] has as its system ECHCG (Echinocloa crus-galli). The experiment in a line: greenhouse pre-emergence herbicidal test. The following applies: pre-emergence, 0,250 kg/ha, scale from 0 to 100.
Source text: as §1

Test [5] concerns AMARE (Amaranthus retroflexus). The experiment in a line: greenhouse post-emergence herbicidal test. The settings on record: scale from 0 to 100.
Source text: as §1

The test system of test [6] is POLCO (Fallopia convolvulus). The experiment in a line: greenhouse post-emergence herbicidal test. The settings on record: 0.63 kg/ha, scale from 0 to 100.
Source text: as §1

For test [7], the system named is ALOMY (Alopercurus myosuroides). The experiment in a line: greenhouse post-emergence herbicidal test. The settings on record: 0.125 kg/ha, scale from 0 to 100.
Source text: as §1

Test [8] concerns AMARE (Amaranthus retroflexus). The experiment in a line: greenhouse pre-emergence herbicidal test. The settings on record: 0.125 kg/ha, scale from 0 to 100.
Source text: as §1

`COC(=O)CC[C@H](C)NC(=O)C12CC1C(c1cc(F)cc(F)c1)=NO2` (stereo partly drawn) [I16, methyl (4S)-4-[[4-(3,5-difluorophenyl)-2-oxa-3-azabicyclo[3.1.0]hex-3-ene-1-carbonyl]amino]pentanoate]: the results for the pest or weed control at 250 g/ha (in test [1]; in the test on AVEFA (Avena fatua)) were 70 to 90% and 90 to 100%, respectively.

Take `COC(=O)CC[C@H](C)NC(=O)C12ON=C(c3cc(F)cc(F)c3)C1CCS2` (some centres unmarked) [I15]: the pest or weed control at 500 g/ha in test [1] (pre-emergence, 0,500 kg/ha) was 70 to 90%; in the test with AVEFA (Avena fatua) (0.500 kg/ha) it was 90 to 100%. In the test with SETVI (Setaria viridis) (0.500 kg/ha), the “herbicidal activity against SETVI” value was “very good (a very good herbicidal activity is given at values of 90 to 100)”. For the same compound, in test [2], the “herbicidal activity against ABUTH” value was “good (A good herbicidal activity is given at values of 70 to 90)”.

Regarding `COC(=O)[C@@H]1C=C[C@H](NC(=O)C23ON=C(c4cc(Cl)cc(Cl)c4)C2CCC3(C)C)C1` (some centres unmarked) [I12], the “herbicidal activity against SEFTA” value with SETFA (Setaria faberi) (pre-emergence, 0.125 kg/ha) is recorded as “good (A good herbicidal activity is given at values of 70 to 90)”.

As for `COC(=O)C1C=C[C@H](NC(=O)C23CC2C(c2cc(Cl)cc(Cl)c2)=NO3)C1` (some centres unmarked) [I17], the pest or weed control at 250 g/ha (in test [1]; in the test on AVEFA (Avena fatua)) was 90 to 100% throughout.

For `COC(=O)[C@H]1C[C@@H](NC(=O)C23CCC2C(c2cc(Cl)cc(Cl)c2)=NO3)CO1` (some centres unmarked) [I20], the “herbicidal activity against ECHCG” value in test [3] is “good (A good herbicidal activity is given at values of 70 to 90)”. Moreover, the “herbicidal activity against SETVI” value with SETVI (Setaria viridis) (0.63 kg/ha) is given as “very good (a very good herbicidal activity is given at values of 90 to 100)”. Also, the pest or weed control at 630 g/ha in the test on AVEFA (Avena fatua) fell in the range of 90 to 100%.

`COC(=O)[C@@H]1C=C[C@H](NC(=O)C23C=CCC2C(c2cc(F)cc(F)c2)=NO3)C1` (stereo partly drawn) [I19, methyl (1S,4R)-4-[[3-(3,5-difluorophenyl)-3a,4-dihydrocyclopenta[d]isoxazole-6a-carbonyl]amino]cyclopent-2-ene-1-carboxylate]: the “herbicidal activity against SETFA” value in the test with SETFA (Setaria faberi) (pre-emergence, 0,250 kg/ha) is reported as “very good (a very good herbicidal activity is given at values of 90 to 100)”. The pest or weed control at 250 g/ha (in test [1]; in the test on AVEFA (Avena fatua)) was 90 to 100% throughout.

Turning to `COC(=O)[C@@H]1C=C[C@H](NC(=O)C23ON=C(c4cc(Cl)cc(Cl)c4)C2CCS3)C1` (stereo partly drawn) [I13, methyl (1S,4R)-4-[[3-(3,5-dichlorophenyl)-4,5-dihydro-3aH-thieno[3,2-d]isoxazole-6a-carbonyl]amino]cyclopent-2-ene-1-carboxylate], the “herbicidal activity against ECHCG” value in test [4] was “very good (a very good herbicidal activity is given at values of 90 to 100)”. Further, the pest or weed control at 250 g/ha (in test [1]; in the test with AVEFA (Avena fatua)) was 90 to 100% in each case.

Take `COC(=O)[C@H]1CC[C@H](NC(=O)C23CCC2C(c2cc(Cl)cc(Cl)c2)=NO3)C1` (some centres unmarked) [I21]: in test [5] (0.63 kg/ha), the “herbicidal activity against AMARE” value is “very good (a very good herbicidal activity is given at values of 90 to 100)”. Moreover, the pest or weed control at 630 g/ha in the test on AVEFA (Avena fatua) is 70 to 90%. Also, the “herbicidal activity against POLCO” value in test [6] is reported as “good (A good herbicidal activity is given at values of 70 to 90)”.

On to `COC(=O)[C@@H]1C=C[C@H](NC(=O)C23NCCC2C(c2cc(Cl)cc(Cl)c2)=NO3)C1` (stereo partly drawn) [I10, methyl (1S,4R)-4-[3-(3,5-dichlorophenyl)-3aH,4H,5H,6H-pyrrolo[3,2-d][1,2]oxazole-6a-amido]cyclopent-2-ene-1-carboxylate], for which the pest or weed control at 250 g/ha in [1] was in the range of 70 to 90%; in the test with AVEFA (Avena fatua) it was 90 to 100%.

In the case of `COC(=O)CC[C@H](C)NC(=O)C12CCCC1C(c1cc(Cl)cc(Cl)c1)=NO2` (some centres unmarked) [I2], the values for the pest or weed control at 125 g/ha (in test [1]; with AVEFA (Avena fatua)) were 70 to 90% and 90 to 100%, respectively. In addition, in test [7], the “herbicidal activity against ALOMY” value is listed as “very good (a very good herbicidal activity is given at values of 90 to 100)”. Further, the “herbicidal activity against AMARE” value in test [5] (0.125 kg/ha) is listed as “good (A good herbicidal activity is given at values of 70 to 90)”.

On to `COC(=O)[C@@H]1C=C[C@H](NC(=O)C23CCCC2C(c2cc(Cl)cc(Cl)c2)=NO3)C1` (some centres unmarked) [I1], for which the “herbicidal activity against AMARE” value in test [8] and in test [5] (0.125 kg/ha) was “very good (a very good herbicidal activity is given at values of 90 to 100)” in each case. Also, the pest or weed control at 125 g/ha in test [1] is 90 to 100%; in the test with AVEFA (Avena fatua), 70 to 90%. The “herbicidal activity against ALOMY” value in test [7] is “good (A good herbicidal activity is given at values of 70 to 90)”.
